Test results reported in article PMC10946732.
Read-outs that look alike come from different tables or passages of the source.

Assays:
[1] = Two-component stapling: SNAr of two Cys thiolates (C-S bonds) on para-C-F of 5,10,15,20-tetrakis(pentafluorophenyl)porphyrin (2), 1 equiv; Cs2CO3 8 equiv, TCEP 4 equiv, N2; settings: the molecule shown is the open-chain precursor, DMSO (dry), 3.3 mM, 25.0 °C, 2.0 h
[2] = the molecule shown is the open-chain precursor; 42-membered ring

`CC[C@H](C)[C@H](NC(=O)[C@H](CCCCN)NC(=O)CNC(=O)[C@H](CC(C)C)NC(=O)[C@H](CC(C)C)NC(=O)[C@H](Cc1ccc(O)cc1)NC(=O)CNC(=O)[C@H](C)N)C(=O)N[C@@H](CC(N)=O)C(=O)N[C@@H](CC(C)C)C(=O)N[C@@H](CCCCN)C(=O)N[C@@H](C)C(=O)N[C@@H](CSc1c(F)c(F)c(-c2c3nc(c(-c4c(F)c(F)c(F)c(F)c4F)c4ccc([nH]4)c(-c4c(F)c(F)c(F)c(F)c4F)c4nc(c(-c5c(F)c(F)c(F)c(F)c5F)c5ccc2[nH]5)C=C4)C=C3)c(F)c1F)C(=O)N[C@@H](C)C(=O)N[C@@H](C)C(=O)N[C@@H](CC(C)C)C(=O)N[C@@H](C)C(=O)N[C@@H](CCCCN)C(=O)N[C@@H](CCCCN)C(=O)N[C@@H](CS)C(=O)N[C@@H](CC(C)C)C(N)=O` showed a ring closure, conversion by HPLC ([1]; 39-membered ring) of 72%.
In the case of `C[C@H](N)C(=O)N[C@@H](CSc1c(F)c(F)c(-c2c3nc(c(-c4c(F)c(F)c(F)c(F)c4F)c4ccc([nH]4)c(-c4c(F)c(F)c(F)c(F)c4F)c4nc(c(-c5c(F)c(F)c(F)c(F)c5F)c5ccc2[nH]5)C=C4)C=C3)c(F)c1F)C(=O)N[C@@H](C)C(=O)N[C@@H](CS)C(=O)NCC(N)=O` [H-Ala-Cys-Ala-Cys-Gly-NH2], the ring closure, conversion by HPLC ([1]; 24-membered ring) is reported as 6%.
With `C[C@H](N)C(=O)N[C@@H](CSc1c(F)c(F)c(-c2c3nc(c(-c4c(F)c(F)c(F)c(F)c4F)c4ccc([nH]4)c(-c4c(F)c(F)c(F)c(F)c4F)c4nc(c(-c5c(F)c(F)c(F)c(F)c5F)c5ccc2[nH]5)C=C4)C=C3)c(F)c1F)C(=O)N[C@@H](C)C(=O)N[C@H](C(=O)NCC(=O)N[C@@H](CO)C(=O)N[C@H](C(=O)N[C@@H](CCC(N)=O)C(=O)N[C@@H](Cc1c[nH]cn1)C(=O)N[C@@H](CCC(N)=O)C(=O)N[C@@H](C)C(=O)N[C@@H](CS)C(=O)NCC(N)=O)[C@@H](C)O)[C@@H](C)O` [H-Ala-Cys-Ala-Thr-Gly-Ser-Thr-Gln-His-Gln-Ala-Cys-Gly-NH2] the ring closure, conversion by HPLC ([1]; 48-membered ring) was 35%.
Compound `C[C@H](N)C(=O)N[C@@H](CSc1c(F)c(F)c(-c2c3nc(c(-c4c(F)c(F)c(F)c(F)c4F)c4ccc([nH]4)c(-c4c(F)c(F)c(F)c(F)c4F)c4nc(c(-c5c(F)c(F)c(F)c(F)c5F)c5ccc2[nH]5)C=C4)C=C3)c(F)c1F)C(=O)N[C@@H](C)C(=O)N[C@H](C(=O)NCC(=O)N[C@@H](CO)C(=O)N[C@H](C(=O)N[C@@H](CCC(N)=O)C(=O)N[C@@H](Cc1c[nH]cn1)C(=O)N[C@@H](CCC(N)=O)C(=O)N[C@@H](CS)C(=O)NCC(N)=O)[C@@H](C)O)[C@@H](C)O` [H-Ala-Cys-Ala-Thr-Gly-Ser-Thr-Gln-His-Gln-Cys-Gly-NH2] has a ring closure, conversion by HPLC ([1]; 45-membered ring) of 36%.
For `C[C@H](N)C(=O)N[C@@H](CSc1c(F)c(F)c(-c2c3nc(c(-c4c(F)c(F)c(F)c(F)c4F)c4ccc([nH]4)c(-c4c(F)c(F)c(F)c(F)c4F)c4nc(c(-c5c(F)c(F)c(F)c(F)c5F)c5ccc2[nH]5)C=C4)C=C3)c(F)c1F)C(=O)N[C@@H](CS)C(=O)NCC(N)=O` [H-Ala-Cys-Cys-Gly-NH2], the ring closure, conversion by HPLC ([1]; 21-membered ring) was 0%.
`C[C@H](N)C(=O)N[C@@H](CSc1c(F)c(F)c(-c2c3nc(c(-c4c(F)c(F)c(F)c(F)c4F)c4ccc([nH]4)c(-c4c(F)c(F)c(F)c(F)c4F)c4nc(c(-c5c(F)c(F)c(F)c(F)c5F)c5ccc2[nH]5)C=C4)C=C3)c(F)c1F)C(=O)N[C@@H](CCC(N)=O)C(=O)N[C@@H](Cc1c[nH]cn1)C(=O)N[C@@H](CCC(N)=O)C(=O)N[C@@H](CS)C(=O)NCC(N)=O` [H-Ala-Cys-Gln-His-Gln-Cys-Gly-NH2] showed a ring closure, conversion by HPLC ([1]; 30-membered ring) of 65% and a ring closure, isolated yield ([1]; 30-membered ring) of 39%.
With `C[C@H](N)C(=O)N[C@@H](CSc1c(F)c(F)c(-c2c3nc(c(-c4c(F)c(F)c(F)c(F)c4F)c4ccc([nH]4)c(-c4c(F)c(F)c(F)c(F)c4F)c4nc(c(-c5c(F)c(F)c(F)c(F)c5F)c5ccc2[nH]5)C=C4)C=C3)c(F)c1F)C(=O)N[C@@H](Cc1c[nH]cn1)C(=O)N[C@@H](CS)C(=O)NCC(N)=O` [H-Ala-Cys-His-Cys-Gly-NH2] the ring closure, conversion by HPLC ([1]; 24-membered ring) was 43%.
`C[C@H](N)C(=O)N[C@@H](CSc1c(F)c(F)c(-c2c3nc(c(-c4c(F)c(F)c(F)c(F)c4F)c4ccc([nH]4)c(-c4c(F)c(F)c(F)c(F)c4F)c4nc(c(-c5c(F)c(F)c(F)c(F)c5F)c5ccc2[nH]5)C=C4)C=C3)c(F)c1F)C(=O)N[C@@H](Cc1c[nH]cn1)C(=O)N[C@@H](CCC(N)=O)C(=O)N[C@@H](CS)C(=O)NCC(N)=O` [H-Ala-Cys-His-Gln-Cys-Gly-NH2] showed a ring closure, conversion by HPLC ([1]; 27-membered ring) of 65%.
Compound `C[C@H](N)C(=O)N[C@@H](CSc1c(F)c(F)c(-c2c3nc(c(-c4c(F)c(F)c(F)c(F)c4F)c4ccc([nH]4)c(-c4c(F)c(F)c(F)c(F)c4F)c4nc(c(-c5c(F)c(F)c(F)c(F)c5F)c5ccc2[nH]5)C=C4)C=C3)c(F)c1F)C(=O)N[C@@H](CO)C(=O)N[C@H](C(=O)N[C@@H](CCC(N)=O)C(=O)N[C@@H](Cc1c[nH]cn1)C(=O)N[C@@H](CCC(N)=O)C(=O)N[C@@H](CS)C(=O)NCC(N)=O)[C@@H](C)O` [H-Ala-Cys-Ser-Thr-Gln-His-Gln-Cys-Gly-NH2] has a ring closure, conversion by HPLC ([1]; 36-membered ring) of 56% and a ring closure, isolated yield ([1]; 36-membered ring) of 24%.
Compound `C[C@H](N)C(=O)N[C@@H](CSc1c(F)c(F)c(-c2c3nc(c(-c4c(F)c(F)c(F)c(F)c4F)c4ccc([nH]4)c(-c4c(F)c(F)c(F)c(F)c4F)c4nc(c(-c5c(F)c(F)c(F)c(F)c5F)c5ccc2[nH]5)C=C4)C=C3)c(F)c1F)C(=O)N[C@H](C(=O)N[C@@H](CCC(N)=O)C(=O)N[C@@H](Cc1c[nH]cn1)C(=O)N[C@@H](CCC(N)=O)C(=O)N[C@@H](CS)C(=O)NCC(N)=O)[C@@H](C)O` [H-Ala-Cys-Thr-Gln-His-Gln-Cys-Gly-NH2] has a ring closure, conversion by HPLC ([1]; 33-membered ring) of 65% and a ring closure, isolated yield ([1]; 33-membered ring) of 25%.
Work on `C[C@H](N)C(=O)N[C@@H](CSc1c(F)c(F)c(-c2c3nc(c(-c4c(F)c(F)c(F)c(F)c4F)c4ccc([nH]4)c(-c4c(F)c(F)c(F)c(F)c4F)c4nc(c(-c5c(F)c(F)c(F)c(F)c5F)c5ccc2[nH]5)C=C4)C=C3)c(F)c1F)C(=O)N[C@H](C(=O)NCC(=O)N[C@@H](CO)C(=O)N[C@H](C(=O)N[C@@H](CCC(N)=O)C(=O)N[C@@H](Cc1c[nH]cn1)C(=O)N[C@@H](CCC(N)=O)C(=O)N[C@@H](CS)C(=O)NCC(N)=O)[C@@H](C)O)[C@@H](C)O` [H-Ala-Cys-Thr-Gly-Ser-Thr-Gln-His-Gln-Cys-Gly-NH2] yielded a ring closure, conversion by HPLC ([1]; 42-membered ring) of 46% and a ring closure, isolated yield ([1]; 42-membered ring) of 18%.
Compound `C[C@H](N)C(=O)N[C@@H](CSc1c(F)c(F)c(-c2c3nc(c(-c4c(F)c(F)c(F)c(F)c4F)c4ccc([nH]4)c(-c4c(F)c(F)c(F)c(F)c4F)c4nc(c(-c5c(F)c(F)c(F)c(F)c5F)c5ccc2[nH]5)C=C4)C=C3)c(F)c1F)C(=O)N[C@H](C(=O)N[C@@H](Cc1c[nH]cn1)C(=O)NCC(=O)N[C@@H](CCC(N)=O)C(=O)N[C@H](C(=O)N[C@@H](CCC(N)=O)C(=O)N[C@@H](CO)C(=O)N[C@@H](CS)C(=O)NCC(N)=O)[C@@H](C)O)[C@@H](C)O` [H-Ala-Cys-Thr-His-Gly-Gln-Thr-Gln-Ser-Cys-Gly-NH2] has a ring closure, conversion by HPLC ([1]; 42-membered ring) of 47% and a ring closure, isolated yield ([1]; 42-membered ring) of 10%.
In the case of `C[C@H](N)C(=O)N[C@@H](CSc1c(F)c(F)c(-c2c3nc(c(-c4c(F)c(F)c(F)c(F)c4F)c4ccc([nH]4)c(-c4c(F)c(F)c(F)c(F)c4F)c4nc(c(-c5c(F)c(F)c(F)c(F)c5F)c5ccc2[nH]5)C=C4)C=C3)c(F)c1F)C(=O)N[C@H](C(=O)N[C@@H](CO)C(=O)N[C@H](C(=O)N[C@@H](CCC(N)=O)C(=O)N[C@@H](Cc1c[nH]cn1)C(=O)N[C@@H](CCC(N)=O)C(=O)N[C@@H](CS)C(=O)NCC(N)=O)[C@@H](C)O)[C@@H](C)O` [H-Ala-Cys-Thr-Ser-Thr-Gln-His-Gln-Cys-Gly-NH2], the ring closure, conversion by HPLC ([1]; 39-membered ring) is reported as 50%.
`CC[C@H](C)[C@H](NC(=O)[C@H](Cc1ccc(O)cc1)NC(=O)CNC(=O)[C@@H](NC(=O)[C@@H](NC(=O)[C@H](CSc1c(F)c(F)c(-c2c3nc(c(-c4c(F)c(F)c(F)c(F)c4F)c4ccc([nH]4)c(-c4c(F)c(F)c(F)c(F)c4F)c4nc(c(-c5c(F)c(F)c(F)c(F)c5F)c5ccc2[nH]5)C=C4)C=C3)c(F)c1F)NC(=O)[C@@H](N)CC(N)=O)C(C)C)C(C)C)C(=O)NCC(=O)N[C@@H](CCC(=O)O)C(=O)N[C@@H](CCCNC(=N)N)C(=O)N[C@@H](CS)C(=O)N[C@@H](CCC(N)=O)C(N)=O` [H-Asn-Cys-Val-Val-Gly-Tyr-Ile-Gly-Glu-Arg-Cys-Gln-NH2] gave a ring closure, conversion by HPLC ([1]; 45-membered ring) of 36%.
In the case of `CC(C)C[C@H](NC(=O)[C@H](C)NC(=O)[C@@H](NC(=O)[C@H](CCC(=O)O)NC(=O)[C@@H]1CCCN1C(=O)[C@H](C)NC(=O)[C@H](CCCCN)NC(=O)[C@@H](N)CSc1c(F)c(F)c(-c2c3nc(c(-c4c(F)c(F)c(F)c(F)c4F)c4ccc([nH]4)c(-c4c(F)c(F)c(F)c(F)c4F)c4nc(c(-c5c(F)c(F)c(F)c(F)c5F)c5ccc2[nH]5)C=C4)C=C3)c(F)c1F)[C@@H](C)O)C(=O)N[C@@H](CS)C(N)=O` [H-Cys-Lys-Ala-Pro-Glu-Thr-Ala-Leu-Cys-NH2], the ring closure, conversion by HPLC [2] is reported as 44%.
